Measured values: patent US12215389B2, “Compositions for detecting epigenetic modifications” (EXACT SCIENCES CORPORATION, priority 2007, dated 2025)

Assays:
[1] = test system: methylated gene promoters in FFPE tissue DNA; assay: Real-time MSP on colon tissue samples; design: species or system human; settings: for Specificity (%) / Sensitivity (%): 50 cases (adenoma + carcinoma) vs 39 controls, tissue
Protocol: Real-time MSP was applied on a 7900HT fast real-time PCR system (Applied Biosystems). 2.4 μl of the modified DNA (equivalent to 2.5 μg unconverted DNA) was added to a PCR mix (total volume 12 μl) containing buffer (16.6 mM (NH4)2SO4, 67 mM Tris (pH 8.8), 6.7 mM MgCl2, 10 mM β-mercaptoethanol), dNTPs (5 mM), forward primer (6 ng), reverse primer (18 ng), molecular beacon (0.16 μM), BSA (0.1 μg), and Jumpstart DNA Taq polymerase (0.4 units; Sigma Aldrich). Cycle program used was as follows: 5 minutes 95° C., followed by 45 cycles of 30 seconds 95° C., 30 seconds 57° C. (51° C. for APC), and 30 seconds 72° C., followed by 5 minutes 72° C. A standard curve (2×106—20 copies) was included to determine copy numbers of unknown samples by interpolation of their Ct values to the standard curve.
Marker selection in colon tissue: Based on re-expression, 224 different gene assays representing 145 gene promotors were tested on the Base5 methylation profiling platform (data not shown, see reference 1 for details). The 37 most differentially methylated gene sequences assessing 29 gene promoters were validated on retrospectively collected tumors from 65 colorectal cancer patients (all stages) and 74 distant resection ends (histopathologically normal) using real-time MSP. Several markers reliably detected CRC in those tissue samples (data not shown). The results were confirmed on an independent test set containing 39 tissue controls (non-cancerous), 34 carcinomas and 16 adenomas. Several combinations of the tested markers reliably detected CRC with high specificity and sensitivity.
The ten best performing markers GATA5, GATA4, SFRP1, SFRP2, APC, MGMT, NDRG4, OSMR, JPH3 and ADAM23 were validated with primer sets and beacon probes as specified in Table 24. In addition to the colon test genes, the independent reference gene β-Actin (ACT) was also measured. The ratios between the colon test genes and ACT were calculated, and are the test result of the assay.
Marker candidates identified by re-expression were screened using 37 real-time methylation specific PCR (real-time MSP) assays. These assays were used to assess the methylation status of 29 gene promoters in 293 formalin-fixed paraffin-embedded (FFPE) tissue samples collected from various clinics. Samples included 99 carcinomas of various stages, 16 adenomas, 63 samples from patients with cancer other than CRC (20 breast [stages I-III], 22 bladder [stages I-III], 21 lung [stages I and II]), 39 samples from patients with no evidence of cancer and 76 distant resection ends (histopathologically normal) from CRC patients. These samples were divided into training and independent test sets, and used to select the gene methylation assays best able to discriminate between cancerous and non-cancerous samples. The training set included retrospectively collected tumors from 65 colorectal cancer patients (all stages) and 74 distant resection ends. Using the 10 best performing genes the results were confirmed on an independent test set containing 59 samples from patients with cancer other than CRC, 39 non-cancerous controls and 50 cancer cases (34 carcinomas and 16 adenomas).
The individual performance of the 10 best performing tissue markers OSMR, SFRP1, GATA4, SFRP2, NDRG4, ADAM23, GATA5, MGMT, APC and JPH3 is shown in FIG. 7, when the analytical cut-off was set to give 100% specificity, except for JPH3 where a specificity of 95% was obtained (based on the 39 non-cancerous controls). In addition to the colon test genes, the independent reference gene β-Actin (ACT) was also measured. The ratios between the colon test genes and ACT were calculated, and are the test result of the assay.

[2] = test system: methylated gene promoters in fecal DNA; assay: Real-time MSP on stool (fecal) DNA; design: species or system human; settings: fecal samples; for Sens adenoma: 13 samples; for Sens CRC: 15 samples; for Spec: 19 samples
Source text: A standardized multicenter screening trial (The Netherlands) was initiated in 2006. In this trial, non symptomatic subjects aged 50 or above are screened with colonoscopy, FOBT and real-time MSP using DNA from stool and blood. In addition, prospectively collected stool samples from multiple centers (Germany and The Netherlands) were used. In these trials, symptomatic patients, attending a Gastroenterology clinic and ultimately diagnosed with CRC, provided a stool sample for use in real-time MSP. From the ongoing trials 147 stool samples were available for the present study. 3 main categories of stool samples were used: 67 samples with no suspicious findings, 58 adenomas and 22 samples from patients covering all stages of CRC, with 90% representing early stage disease.
After defecation in a special bucket, patients added 250 ml of stool homogenization buffer (Amresco, Solon, Ohio, USA) to the sample. Samples were shipped to the laboratory and further processed within 72 hours after defecation. Stool homogenization buffer was added to a ratio 1:7, and the samples were homogenized and aliquoted in portions of 32 ml.
Single aliquots (32 ml containing the equivalent of 4 g of stool) were centrifuged for 5 minutes at 2540 rcf at 20° C. The supernatant was retained and centrifuged a second time (10 minutes at 16500 rcf at 4° C.). 22 ml of the supernatant obtained following the second centrifugation step was incubated with 5 μl Rnase A for 60 minutes at 37° C. Total DNA was then SodiumAcetate (pH 5.2)-isopropanol precipitated and washed with 70% ethanol. The DNA was resuspended in 4 ml 1×TE (pH 7.4). 400 μl 10× buffer (240 mM EDTA (pH=8.0), 750 mM NaC), 400 μl 10% SDS, and 20 μl Proteinase K (20 mg/ml) was added and the samples were incubated at 48° C. overnight at constant shaking (225 RPM). After centrifugation (3000 RCF for 30 seconds at room temperature), 5 ml of Phenol:Chloroform:Isoamylalcohol (25:24:1, v/v:Invitrogen) was added and incubated for 10 minutes at room temperature shaking at 225 RPM and centrifuged for 5 minutes at 3000 RCF. The aqueous layer was transferred to a new tube containing 5 ml of Phenol:Chloroform:Isoamylalcohol. Again, the samples were incubated for 10 minutes at room temperature shaking at 225 RPM and centrifuged for 5 minutes at 3000 RCF at room temperature. The aqueous layer was transferred to a new tube and DNA was precipitated by adding 500 μl 7.5 M Ammonium Acetate, 5 μl glycogen and 10 ml of cold 100% Ethanol (−20° C.), further incubated at −20° C. for at least 1 hour and centrifuged at 15000 RCF for 30 minutes at 4° C. Pellets were washed with 3.5 ml freshly prepared 70% Ethanol and air dried. Pellets were finally resuspended in 2 ml of LoTE pH 8.0 and stored at −80° C., until further processing.
An upscaled DNA modification step was applied to 32 μg of the obtained DNA. 16 Aliquots of 2 μg of DNA were subjected to bisulfite modification in 96-wells format on a pipetting robot (Tecan), using the EZ-96DNA Methylation kit (Zymo Research), according to the manufacturer's protocol. Basically, aliquots of 45 μl were mixed with 5 μl of M-Dilution Buffer and incubated at 37° C. for 15 minutes shaking at 1100 rpm. Then 100 μl of the diluted CT Conversion Reagent was added and samples were incubated at 70° C. for 3 hours, shaking at 1100 rpm in the dark. After conversion, the samples were desalted by incubation on ice for 10 minutes and addition of 400 μl of M-Binding buffer. The samples were loaded on a Zymo-Spin I Column in a collection tube and after centrifugation washed with 200 μl of M-Wash Buffer. 200 μl of M-Desulphonation Buffer was put onto the column and incubated at room temperature for 15 minutes. After centrifugation of the columns, they were washed twice with 200 μl of M-Wash Buffer. Finally, the DNA was washed from the column in 50 μl Tris-HCl 1 mM pH8.0 and stored at −80° C., until further processing.

[3] = test system: NDRG4 or OSMR plasmid material; assay: Real-time MSP assay designs on plasmid material; design: key to Ct / Duplicate Ct / Average Ct: cycle number at which amplification curve crosses threshold; settings: for PCR efficiency: from standard curve on plasmid material
Protocol: Plasmid material corresponding to a promoter region of NDRG4 and OSMR gene was used to test additional assay designs. The plasmid for the standard curve was generated as follows: the promoter sequence as defined by the primers is PCR amplified and cloned (using suitable isolated and bisulphite modified cell line DNA). The sequence is verified by sequencing and compared to the published promoter sequence. A serial dilution of either NDRG4 or OSMR plasmid material (2×10^6 to 2×10^1 copies/5 μl) was loaded in duplicate. 5 μl of plasmid dilution or buffer (non template control) was added to a 20 μl PCR mix containing the specified primer and beacon detector sequences as previously described. Results were generated using the SDS 2.2 software from Applied Biosystems with automatic baseline and threshold settings. Data were exported as Ct values (cycle number at which the amplification curves cross the threshold value, set automatically by the software).

[4] = 16 adenoma tissue samples vs 39 controls
[5] = 34 carcinoma tissue samples vs 39 controls
[6] = plasmid standard, quantity 20 copies
[7] = plasmid standard, quantity 200 copies
[8] = plasmid standard, quantity 2000 copies
[9] = plasmid standard, quantity 20000 copies
[10] = plasmid standard, quantity 200000 copies
[11] = plasmid standard, quantity 2000000 copies

| Substance | Sensitivity [1, 4] | Specificity [1, 4] | Sensitivity [1, 5] | Specificity [1, 5] | Specificity (%) [1] | Sensitivity (%) ([1]; first cut off ratio) | Sens adenoma [2] | Sens CRC [2] | Spec [2] | PCR efficiency [3] | Average Ct [3, 6] | Ct [3, 6] | Duplicate Ct [3, 6] | Average Ct [3, 7] | Ct [3, 7] | Duplicate Ct [3, 7] | Average Ct [3, 8] | Ct [3, 8] | Duplicate Ct [3, 8] | Average Ct [3, 9] | also measured |
| --- | --- | --- | --- | --- | --- | --- | --- | --- | --- | --- | --- | --- | --- | --- | --- | --- | --- | --- | --- | --- | --- |
| OSMR (3) (DNA TTTGGTCGGGGTAGGAGTAGC; listed as DNA, chemistry not given here) | 88% | 100% | 88% | 100% | 100% | 88% | 8% | 67% | 100% | – | – | – | – | – | – | – | – | – | – | – | – |
| GATA4 (DNA AGGTTAGTTAGCGTTTTAGGGTC; listed as DNA, chemistry not given here) | 88% | 100% | 74% | 100% | 100% | 78% | 15% | 73% | 100% | – | – | – | – | – | – | – | – | – | – | – | Sensitivity (%) ([1]; second cut off ratio, between ( )): (82) % |
| MGMT (DNA TTTCGACGTTCGTAGGTTTTCGC; listed as DNA, chemistry not given here) | 63% | 100% | 35% | 100% | 100% | 44% | – | – | – | – | – | – | – | – | – | – | – | – | – | – | – |
| OSMR_3 (DNA TTTGGTCGGGGTAGGAGTAGC; listed as DNA, chemistry not given here) | – | – | – | – | – | – | – | – | – | 97.2% | 33.98 | 34.18 | 33.77 | 30.59 | 30.51 | 30.67 | 27.19 | 27.22 | 27.16 | 23.90 | Ct ([3]; NTC (non template control), quantity 0): 38.13; Ct [3, 9]: 23.97; Duplicate Ct [3, 9]: 23.83; Average Ct [3, 10]: 20.35; Ct [3, 10]: 20.41; Duplicate Ct [3, 10]: 20.29; Average Ct [3, 11]: 17.04; Ct [3, 11]: 16.93; Duplicate Ct [3, 11]: 17.16 |
| OSMR_4 (DNA TTTGGTCGGGGTAGGAGTAGC; listed as DNA, chemistry not given here) | – | – | – | – | – | – | – | – | – | 100.8% | 34.37 | 34.63 | 34.12 | 31.28 | 31.37 | 31.18 | 28.08 | 28.24 | 27.91 | 24.72 | Ct [3, 9]: 24.79; Duplicate Ct [3, 9]: 24.64; Average Ct [3, 10]: 21.31; Ct [3, 10]: 21.56; Duplicate Ct [3, 10]: 21.05; Average Ct [3, 11]: 18.07; Ct [3, 11]: 18.24; Duplicate Ct [3, 11]: 17.90 |
